Assay results reported in US20240358668A1, “METHODS AND CO[…] AM[…] CARD[…] USING (R)-2-AMINO-3-PH[…]” (AXSOME THERAPEUTICS, INC., priority 2021, published 2024).

System: participants with narcolepsy or OSA
Experiment: 1-year OLE study: clinical laboratory assessments (total cholesterol, triglycerides, glucose), OLE baseline to week 40
Assay type: in vivo, human
Procedure: A 1-year open-label extension (OLE) study was performed with 374 participants to examined whether clinically significant weight loss (≥5%) in this population had favorable effects on biomarkers of cardiovascular risk compared to no such weight loss. The study measured changes in weight and BP (parent study baseline to OLE week 40) and clinical laboratory assessments (OLE baseline to week 40) in participants with narcolepsy (n=124) or OSA (n=250) who received solriamfetol at doses of 75, 150, or 300 mg/d.
We evaluated changes in weight and BP (parent study baseline to OLE week 40) and clinical laboratory assessments (OLE baseline to week 40) in participants with narcolepsy (n=124) or OSA (n=250) from the OLE study.

[1] = Weight loss <5% at Week 40, 75 mg/d
[2] = Weight loss <5% at Week 40, 150 mg/d
[3] = Weight loss <5% at Week 40, 300 mg/d
[4] = Weight loss <5% at Week 40, all doses
[5] = Weight loss ≥5% at Week 40, 75 mg/d
[6] = Weight loss ≥5% at Week 40, 150 mg/d
[7] = Weight loss ≥5% at Week 40, 300 mg/d
[8] = Weight loss ≥5% at Week 40, all doses

Compound: NC(=O)OC[C@H](N)Cc1ccccc1 [Solriamfetol, (R)-2-amino-3-phenylpropyl carbamate]
- Glucose Change - Wk 40, Mean (SD) [1]: −0.1 (3.0) mmol/L
- Glucose Change - Wk 40, Median [1]: 0.2 mmol/L
- Glucose category High, Week 40 [1]: 16(76.2) n (%)
- Glucose category Low, Week 40 [1]: 0 n (%)
- Glucose category Normal, Week 40 [1]: 5(23.8) n (%)
- TC Change - Wk 40, Mean (SD) [1]: −0.1 (0.7) mmol/L
- TC Change - Wk 40, Median [1]: 0.2 mmol/L
- TG Change - Wk 40, Mean (SD) [1]: 0.2 (0.9) mmol/L
- TG Change - Wk 40, Median [1]: -0.1 mmol/L
- Total cholesterol category High, Week 40 [1]: 8(38.1) n (%)
- Total cholesterol category Low, Week 40 [1]: 0 n (%)
- Total cholesterol category Normal, Week 40 [1]: 13(61.9) n (%)
- Triglycerides category High, Week 40 [1]: 11(52.4) n (%)
- Triglycerides category Low, Week 40 [1]: 0 n (%)
- Triglycerides category Normal, Week 40 [1]: 10(47.6) n (%)
- Glucose Change - Wk 40, Mean (SD) [2]: −0.1 (1.1) mmol/L
- Glucose Change - Wk 40, Median [2]: -0.1 mmol/L
- Glucose category High, Week 40 [2]: 47(46.1) n (%)
- Glucose category Low, Week 40 [2]: 0 n (%)
- Glucose category Normal, Week 40 [2]: 55(53.9) n (%)
- TC Change - Wk 40, Mean (SD) [2]: 0.1 (0.7) mmol/L
- TC Change - Wk 40, Median [2]: 0.1 mmol/L
- TG Change - Wk 40, Mean (SD) [2]: −0.1 (1.0) mmol/L
- TG Change - Wk 40, Median [2]: -0.0 mmol/L
- Total cholesterol category High, Week 40 [2]: 46(44.2) n (%)
- Total cholesterol category Low, Week 40 [2]: 0 n (%)
- Total cholesterol category Normal, Week 40 [2]: 58(55.8) n (%)
- Triglycerides category High, Week 40 [2]: 39(37.5) n (%)
- Triglycerides category Low, Week 40 [2]: 0 n (%)
- Triglycerides category Normal, Week 40 [2]: 65(62.5) n (%)
- Glucose Change - Wk 40, Mean (SD) [3]: −0.1 (1.9) mmol/L
- Glucose Change - Wk 40, Median [3]: 0.0 mmol/L
- Glucose category High, Week 40 [3]: 69(48.9) n (%)
- Glucose category Low, Week 40 [3]: 0 n (%)
- Glucose category Normal, Week 40 [3]: 72(51.1) n (%)
- TC Change - Wk 40, Mean (SD) [3]: 0.1 (0.6) mmol/L
- TC Change - Wk 40, Median [3]: 0.100 mmol/L
- TG Change - Wk 40, Mean (SD) [3]: 0.0 (0.7) mmol/L
- TG Change - Wk 40, Median [3]: -0.1 mmol/L
- Total cholesterol category High, Week 40 [3]: 46(31.9) n (%)
- Total cholesterol category Low, Week 40 [3]: 0 n (%)
- Total cholesterol category Normal, Week 40 [3]: 98(68.1) n (%)
- Triglycerides category High, Week 40 [3]: 50(34.7) n (%)
- Triglycerides category Low, Week 40 [3]: 0 n (%)
- Triglycerides category Normal, Week 40 [3]: 94(65.3) n (%)
- Glucose Change - Wk 40, Mean (SD) [4]: −0.1 (1.8) mmol/L
- Glucose Change - Wk 40, Median [4]: -0.0 mmol/L
- Glucose category High, Week 40 [4]: 132(50.0) n (%)
- Glucose category Low, Week 40 [4]: 0 n (%)
- Glucose category Normal, Week 40 [4]: 132(50.0) n (%)
- TC Change - Wk 40, Mean (SD) [4]: 0.1 (0.6) mmol/L
- TC Change - Wk 40, Median [4]: 0.100 mmol/L
- TG Change - Wk 40, Mean (SD) [4]: −0.0 (0.9) mmol/L
- TG Change - Wk 40, Median [4]: -0.0 mmol/L
- Total cholesterol category High, Week 40 [4]: 100(37.2) n (%)
- Total cholesterol category Low, Week 40 [4]: 0 n (%)
- Total cholesterol category Normal, Week 40 [4]: 169(62.8) n (%)
- Triglycerides category High, Week 40 [4]: 100(37.2) n (%)
- Triglycerides category Low, Week 40 [4]: 0 n (%)
- Triglycerides category Normal, Week 40 [4]: 169(62.8) n (%)
- Glucose Change - Wk 40, Mean (SD) [5]: -0.5 mmol/L
- Glucose Change - Wk 40, Median [5]: -0.5 mmol/L
- Glucose category High, Week 40 [5]: 1(100) n (%)
- Glucose category Low, Week 40 [5]: 0 n (%)
- Glucose category Normal, Week 40 [5]: 0 n (%)
- TC Change - Wk 40, Mean (SD) [5]: 1.1 mmol/L
- TC Change - Wk 40, Median [5]: 1.1 mmol/L
- TG Change - Wk 40, Mean (SD) [5]: 0.3 mmol/L
- TG Change - Wk 40, Median [5]: 0.3 mmol/L
- Total cholesterol category High, Week 40 [5]: 0 n (%)
- Total cholesterol category Low, Week 40 [5]: 0 n (%)
- Total cholesterol category Normal, Week 40 [5]: 1(100) n (%)
- Triglycerides category High, Week 40 [5]: 0 n (%)
- Triglycerides category Low, Week 40 [5]: 0 n (%)
- Triglycerides category Normal, Week 40 [5]: 1(100) n (%)
- Glucose Change - Wk 40, Mean (SD) [6]: −0.2 (0.8) mmol/L
- Glucose Change - Wk 40, Median [6]: -0.2 mmol/L
- Glucose category High, Week 40 [6]: 7(31.8) n (%)
- Glucose category Low, Week 40 [6]: 0 n (%)
- Glucose category Normal, Week 40 [6]: 15(68.2) n (%)
- TC Change - Wk 40, Mean (SD) [6]: 0.2 (0.5) mmol/L
- TC Change - Wk 40, Median [6]: 0.2 mmol/L
- TG Change - Wk 40, Mean (SD) [6]: −0.1 (0.4) mmol/L
- TG Change - Wk 40, Median [6]: -0.2 mmol/L
- Total cholesterol category High, Week 40 [6]: 4(18.2) n (%)
- Total cholesterol category Low, Week 40 [6]: 0 n (%)
- Total cholesterol category Normal, Week 40 [6]: 18(81.8) n (%)
- Triglycerides category High, Week 40 [6]: 6(27.3) n (%)
- Triglycerides category Low, Week 40 [6]: 0 n (%)
- Triglycerides category Normal, Week 40 [6]: 16(72.7) n (%)
- Glucose Change - Wk 40, Mean (SD) [7]: −0.2 (1.5) mmol/L
- Glucose Change - Wk 40, Median [7]: -0.1 mmol/L
- Glucose category High, Week 40 [7]: 19(26.0) n (%)
- Glucose category Low, Week 40 [7]: 0 n (%)
- Glucose category Normal, Week 40 [7]: 54(74.0) n (%)
- TC Change - Wk 40, Mean (SD) [7]: 0.2 (0.6) mmol/L
- TC Change - Wk 40, Median [7]: 0.2 mmol/L
- TG Change - Wk 40, Mean (SD) [7]: −0.3 (1.0) mmol/L
- TG Change - Wk 40, Median [7]: -0.2 mmol/L
- Total cholesterol category High, Week 40 [7]: 18(24.7) n (%)
- Total cholesterol category Low, Week 40 [7]: 0 n (%)
- Total cholesterol category Normal, Week 40 [7]: 55(75.3) n (%)
- Triglycerides category High, Week 40 [7]: 15(20.5) n (%)
- Triglycerides category Low, Week 40 [7]: 0 n (%)
- Triglycerides category Normal, Week 40 [7]: 58(79.5) n (%)
- Glucose Change - Wk 40, Mean (SD) [8]: −0.2 (1.4) mmol/L
- Glucose Change - Wk 40, Median [8]: -0.1 mmol/L
- Glucose category High, Week 40 [8]: 27(28.1) n (%)
- Glucose category Low, Week 40 [8]: 0 n (%)
- Glucose category Normal, Week 40 [8]: 69(71.9) n (%)
- TC Change - Wk 40, Mean (SD) [8]: 0.2 (0.6) mmol/L
- TC Change - Wk 40, Median [8]: 0.2 mmol/L
- TG Change - Wk 40, Mean (SD) [8]: −0.2 (0.9) mmol/L
- TG Change - Wk 40, Median [8]: -0.2 mmol/L
- Total cholesterol category High, Week 40 [8]: 22(22.9) n (%)
- Total cholesterol category Low, Week 40 [8]: 0 n (%)
- Total cholesterol category Normal, Week 40 [8]: 74(77.1) n (%)
- Triglycerides category High, Week 40 [8]: 21(21.9) n (%)
- Triglycerides category Low, Week 40 [8]: 0 n (%)
- Triglycerides category Normal, Week 40 [8]: 75(78.1) n (%)
- percentage of participants with high total cholesterol (participants with weight loss, week 40 (baseline 22.3%)): 22.9%
- percentage of participants with high triglycerides (participants with weight loss, week 40 (baseline 26.6%)): 21.9%
- percentage of participants with high serum glucose (participants with weight loss, week 40 (baseline 36.6%)): 28.1%
- percentage of participants with high total cholesterol (participants without weight loss, week 40 (baseline 32.7%)): 37.2%
- percentage of participants with high triglycerides (participants without weight loss, week 40 (baseline 37.1%)): 37.2%
- percentage of participants with high serum glucose (participants without weight loss, week 40 (baseline 43.3%)): 50%
